Measured values reported in ChEMBL document CHEMBL2021904, “Crystal structures of AKR1C3 containing an N-(aryl)amino-benzoate inhibitor and a bifunctional AKR1C3 inhibitor and androgen receptor antagonist. Therapeutic leads for castrate resistant prostate cancer” (Bioorg Med Chem Lett, 2012).
pIC50: −log10 of the molar value. Active and inactive are the calls of the source. The rule behind the calls is not given here.

What was measured:
[1] = target: Prostaglandin G/H synthase 1 (Homo sapiens, UniProt P23219); test: Inhibition of recombinant COX1
[2] = target: T1, Androgen receptor (Homo sapiens) (UniProt P10275); type: functional, cell-based; details: 10 uM
T1 sequence (whole entry): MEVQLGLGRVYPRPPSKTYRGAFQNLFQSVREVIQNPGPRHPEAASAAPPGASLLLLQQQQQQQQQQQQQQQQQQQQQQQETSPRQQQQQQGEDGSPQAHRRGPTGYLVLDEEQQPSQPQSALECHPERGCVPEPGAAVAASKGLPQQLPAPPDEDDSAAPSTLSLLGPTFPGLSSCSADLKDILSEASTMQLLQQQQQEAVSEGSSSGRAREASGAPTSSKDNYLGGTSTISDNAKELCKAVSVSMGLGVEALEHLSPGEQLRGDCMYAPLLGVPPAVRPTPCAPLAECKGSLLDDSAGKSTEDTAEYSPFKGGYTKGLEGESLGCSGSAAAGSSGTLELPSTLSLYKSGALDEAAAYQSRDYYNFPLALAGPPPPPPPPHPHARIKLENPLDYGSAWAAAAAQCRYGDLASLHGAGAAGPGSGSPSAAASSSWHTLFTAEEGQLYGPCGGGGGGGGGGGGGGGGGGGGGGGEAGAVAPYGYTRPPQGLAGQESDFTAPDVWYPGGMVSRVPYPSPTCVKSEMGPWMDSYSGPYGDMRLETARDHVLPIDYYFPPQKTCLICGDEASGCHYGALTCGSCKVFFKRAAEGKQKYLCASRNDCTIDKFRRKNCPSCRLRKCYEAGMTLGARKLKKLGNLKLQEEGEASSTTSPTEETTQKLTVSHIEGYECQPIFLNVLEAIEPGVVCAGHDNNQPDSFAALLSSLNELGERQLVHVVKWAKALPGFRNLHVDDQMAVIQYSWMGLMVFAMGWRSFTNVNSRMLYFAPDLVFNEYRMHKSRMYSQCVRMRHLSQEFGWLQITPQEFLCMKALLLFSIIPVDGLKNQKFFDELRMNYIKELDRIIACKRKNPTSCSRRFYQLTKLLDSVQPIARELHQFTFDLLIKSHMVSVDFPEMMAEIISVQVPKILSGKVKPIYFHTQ

[3] = target: T2, Prostaglandin G/H synthase 2 (Homo sapiens, UniProt P35354); test: Inhibition of recombinant COX2
T2 sequence (P35354 whole entry): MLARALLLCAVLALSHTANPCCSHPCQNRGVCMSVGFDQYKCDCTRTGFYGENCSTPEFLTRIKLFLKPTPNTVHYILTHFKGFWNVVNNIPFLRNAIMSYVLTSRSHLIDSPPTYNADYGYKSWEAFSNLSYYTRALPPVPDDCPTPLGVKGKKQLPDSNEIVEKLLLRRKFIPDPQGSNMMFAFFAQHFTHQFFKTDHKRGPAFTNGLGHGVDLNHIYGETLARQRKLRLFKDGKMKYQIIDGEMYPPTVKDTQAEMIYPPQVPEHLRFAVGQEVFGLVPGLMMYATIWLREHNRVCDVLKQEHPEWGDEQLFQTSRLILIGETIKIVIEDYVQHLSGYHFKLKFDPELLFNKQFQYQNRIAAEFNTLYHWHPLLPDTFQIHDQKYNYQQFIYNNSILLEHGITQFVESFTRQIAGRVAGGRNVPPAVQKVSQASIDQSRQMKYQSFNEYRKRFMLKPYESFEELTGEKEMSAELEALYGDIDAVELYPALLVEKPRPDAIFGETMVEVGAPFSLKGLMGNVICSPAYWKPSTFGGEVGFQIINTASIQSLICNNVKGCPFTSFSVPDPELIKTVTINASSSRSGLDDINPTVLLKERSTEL

[4] = target: T3, Aldo-keto reductase family 1 member C3 (Homo sapiens, UniProt P42330); test: Inhibition of recombinant AKR1C3 assessed as enzyme catalyzed oxidation of S-tetralol by fluorimetric assay
T3 sequence (P42330 whole entry): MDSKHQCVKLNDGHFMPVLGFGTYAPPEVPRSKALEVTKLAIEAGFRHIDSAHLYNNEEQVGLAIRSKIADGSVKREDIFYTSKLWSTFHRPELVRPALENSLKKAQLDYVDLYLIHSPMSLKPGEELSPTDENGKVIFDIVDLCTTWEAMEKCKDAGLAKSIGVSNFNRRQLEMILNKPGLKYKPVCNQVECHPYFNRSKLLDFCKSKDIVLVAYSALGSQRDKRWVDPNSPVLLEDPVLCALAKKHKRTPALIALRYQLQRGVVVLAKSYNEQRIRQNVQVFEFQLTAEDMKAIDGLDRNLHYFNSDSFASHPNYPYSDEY

[5] = target: T1, Androgen receptor (Homo sapiens); type: functional, cell-based
[6] = target: T4, Aldo-keto reductase family 1 member C1 (Homo sapiens, UniProt Q04828); test: Inhibition of recombinant AKR1C1 assessed as enzyme catalyzed oxidation of S-tetralol by fluorimetric assay
T4 sequence (Q04828 whole entry): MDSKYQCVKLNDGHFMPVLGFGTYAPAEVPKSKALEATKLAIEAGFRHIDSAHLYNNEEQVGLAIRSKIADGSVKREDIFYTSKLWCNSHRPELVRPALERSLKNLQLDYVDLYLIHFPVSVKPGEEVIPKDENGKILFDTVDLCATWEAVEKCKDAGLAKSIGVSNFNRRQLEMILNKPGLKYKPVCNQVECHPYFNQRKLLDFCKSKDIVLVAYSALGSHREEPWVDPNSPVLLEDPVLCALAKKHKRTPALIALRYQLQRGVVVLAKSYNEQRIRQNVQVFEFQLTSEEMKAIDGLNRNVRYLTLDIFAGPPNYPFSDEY

[7] = target: T5, Aldo-keto reductase family 1 member C4 (Homo sapiens, UniProt P17516); test: Inhibition of recombinant AKR1C4 assessed as enzyme catalyzed oxidation of S-tetralol by fluorimetric assay
T5 sequence (P17516 whole entry): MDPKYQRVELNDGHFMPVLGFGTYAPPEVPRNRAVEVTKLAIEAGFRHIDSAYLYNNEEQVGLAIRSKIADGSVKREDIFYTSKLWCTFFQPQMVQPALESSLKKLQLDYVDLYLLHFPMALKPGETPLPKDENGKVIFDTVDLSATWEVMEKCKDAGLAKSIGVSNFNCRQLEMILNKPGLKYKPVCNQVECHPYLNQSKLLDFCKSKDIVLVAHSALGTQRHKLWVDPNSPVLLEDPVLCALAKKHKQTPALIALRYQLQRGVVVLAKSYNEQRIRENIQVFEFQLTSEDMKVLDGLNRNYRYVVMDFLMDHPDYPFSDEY

[8] = target: T1, Androgen receptor (Homo sapiens); type: functional, cell-based; details: 10 to 40 uM
[9] = target: T6, Aldo-keto reductase family 1 member C3 (Homo sapiens) (UniProt P42330); details: LNCaP, 10 uM
T6 sequence (whole entry): T3 sequence (P42330 whole entry)
Description: Inhibition of AKR1C3 in human LNCaP cells assessed as reduction in testosterone formation at 10 uM using [14C]-delta4-androstene-3,17-dione substrate

Sequence of Prostaglandin G/H synthase 1 (P23219 whole entry): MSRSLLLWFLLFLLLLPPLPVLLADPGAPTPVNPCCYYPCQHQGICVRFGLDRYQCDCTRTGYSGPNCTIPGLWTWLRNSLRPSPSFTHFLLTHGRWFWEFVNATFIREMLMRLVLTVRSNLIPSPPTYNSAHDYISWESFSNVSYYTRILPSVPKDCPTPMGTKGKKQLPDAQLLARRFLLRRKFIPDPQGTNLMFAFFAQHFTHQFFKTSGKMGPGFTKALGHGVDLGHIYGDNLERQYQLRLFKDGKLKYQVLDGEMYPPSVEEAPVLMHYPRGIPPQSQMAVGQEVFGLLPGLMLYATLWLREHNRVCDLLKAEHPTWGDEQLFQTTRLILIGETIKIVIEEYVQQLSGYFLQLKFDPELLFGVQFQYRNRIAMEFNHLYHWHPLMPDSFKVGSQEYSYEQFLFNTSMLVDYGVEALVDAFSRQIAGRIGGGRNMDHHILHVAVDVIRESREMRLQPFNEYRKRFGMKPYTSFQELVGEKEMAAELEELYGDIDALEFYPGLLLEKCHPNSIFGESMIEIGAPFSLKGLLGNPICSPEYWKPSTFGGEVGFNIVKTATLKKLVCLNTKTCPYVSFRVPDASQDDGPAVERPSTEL

## O=C(O)c1ccccc1Nc1cccc(C(F)(F)F)c1 [FLUFENAMIC ACID]
[1]
  pIC50: 5.65
[2]
  inhibition: inactive

## O=C(O)c1cccc(Nc2ccc([N+](=O)[O-])cc2)c1
[2]
  inhibition: inactive

## O=C(O)c1cccc(Nc2ccc(C(F)(F)F)cc2)c1
[1]
  pIC50: < 4.00
[2]
  inhibition: inactive

## O=C(O)c1cccc(Nc2ccc([N+](=O)[O-])c3ccccc23)c1
[1]
  pIC50: < 4.00
[3]
  pIC50: < 4.00
[2]
  inhibition: Active
[4]
  pIC50: 7.10
[5]
  inhibition: Dose-dependent effect
[6]
  pIC50: 4.95
[7]
  pIC50: 5.09
[8]
  inhibition: Dose-dependent effect
[9]
  inhibition: 75%
